“Also recorded” adds a separate entry of the source.
How the values were obtained:
[1] = system: IFNγ+ CD8+ T cells specific for T4 peptide VVYDFLKCM (Kb/T404-412); assay: Splenic T4-specific IFNγ+ CD8+ T cell frequency after i.m. vaccination with T4/melittin-derived fusion peptide with or without ODN; assay type: in vivo, C57BL/6 (B6) mice; settings: B6 mice, 35 nmol i.m.; for dependence of adjuvant activity on CpG motifs in the ODN: NSS+ ODN-1982 (no CpG) versus ISS+ ODN-1826 (CpG)
Description: The adjuvant activity of the melittin-derived peptide thus acts synergistically even with oligodeoxynucleotides that lack any immunostimulatory sequences. C57BL/6 (B6) mice were either not immunized (group 1) or vaccinated i.m. with 35 nmol of peptides alone (group 2) or mixed with oligodeoxynucleotide (group 3), not containing (A; NSS^+ ODN-1982; SEQ ID NO: 7), or containing (B; ISS^+ ODN-1826; SEQ ID NO: 6) CpG motifs. Spleen cells obtained from immune mice 12 days post vaccination were restimulated ex vivo with the T4 peptide VVYDFLKCM (K^b/T404-412, SEQ ID NO: 4). Mean number of specific IFNγ^+ CD8^+ T cells/10^5 CD8^+ T cells±SD (of 6 mice per group) averaged from two independent experiments are shown.
Fusion of a sample antigen (here, T4 peptide) to the melittin-derived peptide and binding ODN to them creates potent immunogens for CD8^+ T cells. A sample target antigen, the SV40-derived T4 peptide T404-417 VVYDFLKCMVYNIP (SEQ ID NO: 5) was fused to a duplicated amino acid sequence derived from melittin (KRKRQKRKRQ, SEQ ID NO: 2). B6 mice were vaccinated i.m. with 35 nmol of these peptides alone (group 2), or mixed with ODN (group 3), not containing (A; NSS+ ODN-1982), or containing (B; ISS+ ODN-1826) CpG motifs (FIG. 1). Spleen cells obtained from immune mice 12 days post-vaccination were restimulated ex vivo with the T4 peptide VVYDFLKCM (SEQ ID NO: 4) (Kb/T404-412). Mean numbers of specific IFNγ^+ CD8^+ T cells/10^5 CD8^+ T cells±SD (of 6 mice per group) averaged from two independent experiments are shown.
C57BL/6JBom (B6) mice (H-2b) were bred and kept under standard pathogen-free conditions in the animal colony of Ulm University (Ulm, Germany). Male/female mice were used at 12-16 wks of age. The preparation of cationic peptide/ODN vaccines CpG containing ODN-1826 ([…]; ISS-1826, SEQ ID NO: 6) and its control ODN-1982 ([…]; NSS-1982, SEQ ID NO: 7) were obtained from MWG (Ebersberg, Germany). ODN were synthesized with phosphorothioate backbones. […] The number of CD8^+ IFNγ^+ T cells per 10^5 splenic CD8^+ T cells was determined by FCM analyses.

[2] = system: OVA257-64 peptide specific IFNγ+ CD8+ T cells; set-up: species or system C57Bl/6 mice; settings: mouse, in vivo
[3] = system: malaria mimetic UK39 (serum IgG against it); assay: UK39 ELISA of mouse sera after immunization with UK39 IRIV with or without melittin; assay type: in vivo; settings: Balb/c mice, UK39 IRIV (20 μg UK39) + 10 μg melittin; sera day 21 and 35, IgG ELISA read at 492 nm
Method: Balb/c mice were immunized with 100 μl PBS containing: the malaria mimetic UK39 (20 μg UK39) in combination with an IRIV with or without 10 μg Melittin. For the UK39 ELISA, ELISA plates were coated over night at 4° C. with 10 μg/ml UK39 in PBS. After washing with PBS 0.05% Tween20 plates were blocked with 5% dry milk in PBS 2 h at 37° C. Mouse sera from day 21 and 35 were initially diluted 1:10 and titrated in serial 1:2 dilutions in PBS 0.05% Tween20 0.5% dry milk. After 2 h incubation at 37° C. plates were washed and incubated with goat […]-mouse IgG HRP Ab (BD Bioscience) (1:5000 in PBS 0.05% Tween20 0.5% dry milk) 1 h 37° C. Plates were developed with OPD-substrate (OPD (O-Phenylenediamine tablets, Fluka, Switzerland, 1 tablet in 50 ml citrate buffer+50 μl H2O2) for 30 min. The reaction was stopped with 1 M H2SO4 and plates were read at 492 nm.
UK39 IRIV: 4 mg UK39, 4 mg influenza A/Singapore, 32 mg phosphatidylcholine (PC) and 8 mg phosphatidylethanolamine (PE) were resuspended in 4 ml 100 mM OEG in PBS (OEG-PBS), sonicated for 1 min and centrifugated for 1 h at 100′000×g at 20° C. […]
UK39 ELISA: ELISA plates were coated over night at 4° C. with 10 μg/ml UK39 in PBS. […] Plates were developed with OPD-substrate (OPD (O-Phenylendiamine tablets, Fluka, Switzerland, 1 tablet in 50 ml citrate buffer+50 μl H2O2) for 30 min. The reaction was stopped with 1 M H2SO4 and plates were read at 492 nm.

## KRKRQKRKRQ (Synthetic peptide derived from Apis mellifera)
[1]; combined with target antigen T4 and oligodeoxynucleotide, spleen cells 12 days post vaccination restimulated ex vivo with T4 peptide
  adjuvant activity (specific IFNγ+ CD8+ T cells/10^5 CD8+ T cells): significant adjuvant activity
[1]
  dependence of adjuvant activity on CpG motifs in the ODN: not dependent on the presence of CpG sequences in the ODN
[1]; listed as KRKRQKRKRQ
  dependence of adjuvant activity on CpG motifs in the ODN: does not depend on the presence of CpG motifs

## CKRKRQKRKRQSIINFEKL [Cys-Mel-OVA257-64]
[2]
  adjuvant effect in combination with IRIVs (peptide specific IFNγ+ CD8+ T cells): further potentiated by its combination with IRIVs; also recorded: further synergizes with IRIVs

## CC[C@H](C)[C@H](NC(=O)CN)C(=O)NCC(=O)N[C@@H](C)C(=O)N[C@H](C(=O)N[C@@H](CC(C)C)C(=O)N[C@@H](CCCCN)C(=O)N[C@H](C(=O)N[C@@H](CC(C)C)C(=O)N[C@H](C(=O)N[C@H](C(=O)NCC(=O)N[C@@H](CC(C)C)C(=O)N1CCC[C@H]1C(=O)N[C@@H](C)C(=O)N[C@@H](CC(C)C)C(=O)N[C@H](C(=O)N[C@@H](CO)C(=O)N[C@@H](Cc1c[nH]c2ccccc12)C(=O)N[C@H](C(=O)N[C@@H](CCCCN)C(=O)N[C@@H](CCCNC(=N)N)C(=O)N[C@@H](CCCCN)C(=O)N[C@@H](CCCNC(=N)N)C(=O)N[C@@H](CCC(N)=O)C(=O)N[C@@H](CCC(N)=O)C(N)=O)[C@@H](C)CC)[C@@H](C)CC)[C@@H](C)O)[C@@H](C)O)C(C)C)C(C)C [melittin]
[3]
  humoral immune response (B cell immunity) against antigen UK39 coupled to IRIV: adjuvant effect; also recorded: further enhanced
